# Experimental data: US12448394B2, “Heterocyclic pyrazole derivatives as type III receptor tyrosine kinase inhibitors” (DEVELOPMENT CENTER FOR BIOTECHNOLOGY, priority 2019, dated 2025)
# Tests used:
# FLT3-D835Y mutant kinase = target: T1, FLT3-D835Y mutant kinase (Homo sapiens, UniProt P36888, D835Y); test: FLT3-D835Y mutant kinase assay (AlphaScreen); assay type: biochemical; details: read-out: Ranking of IC50 values, FLT3-D835Y
# T1 construct: purchased SignalChem
# T1 sequence (P36888 27-993 D835Y): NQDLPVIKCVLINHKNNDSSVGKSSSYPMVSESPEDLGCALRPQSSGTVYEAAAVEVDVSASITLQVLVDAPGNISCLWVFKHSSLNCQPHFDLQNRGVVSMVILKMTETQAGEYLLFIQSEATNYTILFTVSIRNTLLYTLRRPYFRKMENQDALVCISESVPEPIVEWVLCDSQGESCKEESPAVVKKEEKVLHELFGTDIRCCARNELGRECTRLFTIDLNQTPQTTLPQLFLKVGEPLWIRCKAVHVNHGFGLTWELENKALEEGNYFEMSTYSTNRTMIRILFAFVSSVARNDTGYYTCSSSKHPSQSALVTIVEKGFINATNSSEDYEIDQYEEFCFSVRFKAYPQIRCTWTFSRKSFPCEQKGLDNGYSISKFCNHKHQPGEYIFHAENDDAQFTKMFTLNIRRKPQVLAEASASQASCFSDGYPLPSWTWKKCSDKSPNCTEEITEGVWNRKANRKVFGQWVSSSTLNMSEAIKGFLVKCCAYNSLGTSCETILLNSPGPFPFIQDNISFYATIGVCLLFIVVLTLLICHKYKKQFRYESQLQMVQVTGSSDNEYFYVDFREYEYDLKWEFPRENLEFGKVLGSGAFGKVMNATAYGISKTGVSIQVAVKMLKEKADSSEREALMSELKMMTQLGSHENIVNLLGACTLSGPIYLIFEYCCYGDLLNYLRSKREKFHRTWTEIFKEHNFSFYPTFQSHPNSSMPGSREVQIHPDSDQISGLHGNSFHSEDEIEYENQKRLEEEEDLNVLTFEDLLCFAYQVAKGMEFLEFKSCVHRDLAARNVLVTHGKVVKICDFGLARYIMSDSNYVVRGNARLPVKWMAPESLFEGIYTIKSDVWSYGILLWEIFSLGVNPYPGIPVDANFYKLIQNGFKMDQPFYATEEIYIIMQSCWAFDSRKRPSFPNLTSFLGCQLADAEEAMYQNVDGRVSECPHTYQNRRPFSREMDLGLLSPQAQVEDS
# Method in brief: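 AlphaScreen readout of biotin-poly(Glu4:Tyr1) phosphorylation by 1 ng recombinant FLT3-D835Y. Conditions were 10 μM ATP, 10 mM MgCl2, MOPS pH 7.0, 30 min at 30 °C, EDTA stop. Compounds were serially diluted in duplicate to derive IC50.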
# [1] = test system: THP-1 human acute monocytic leukemia cell with NRAS G12D mutation; test: THP-1 cell proliferation assay (counter screen); assay type: cell-based; details: Homo sapiens, THP-1 cells, 72 hours treatment, CellTiter96, read-out: anti-proliferation activity THP-1 NRAS N12D, IC50 ranking
# Protocol: Inhibitions of cell growths by compounds were measured using CellTiter™-96 assay. The cytotoxicities of compounds of the invention were evaluated in cell line panels with different signaling pathway dependencies, including MV4-11 human acute myeloid leukemia cell with FLT3-ITD mutation, Molm-14 human acute myeloid leukemia cell with FLT3-ITD mutation, THP-1 human acute monocytic leukemia cell with NRAS G12D mutation, A375 melanoma cell with BRAF V600E mutation, and HCC827 NSCLC cell with EGFR exon 19 deletion mutation.
# THP-1 cells are human acute monocytic leukemia cells with NRAS G12D mutation, which renders the cell growth independent of class III RTKs signaling. THP-1 cells (catalog #TIB-202) were obtained from the ATCC. Briefly, cells were grown in RPMI 1640 medium supplemented with 10% heat inactivated fetal bovine serum and 0.05 mM 2-mercaptoethanol and incubated at 37° C. in 5% CO2 atmosphere. Cells were allowed to expand until reaching saturation, at which point they were sub-cultured or harvested for assay use.
# MV4-11, Molm-14, THP-1, A375, and HCC827 cells were seeded into 96-well plates at 6500, 25000, 5000, 2000 and 8000 cells/well, respectively, and incubated at 37° C., 5% CO2 overnight. Then, these seeded cells were treated with increasing concentrations of the test compounds and incubated for another 72 hours. At the end of the incubation, CellTiter96® AQueous One Solution Reagent (Promega, […]) was added and incubated for the additional 2˜4 hours. Cell viability was determined by measuring absorbance at 490 nm using EMax® microplate reader (Molecular Devices, San Jose, CA, USA).
# [2] = test system: phosphorylation of FLT3 and its down-stream effector STAT5; test: Western blotting of p-FLT3 and p-STAT5 in MV4-11 cells; assay type: cell-based; details: Homo sapiens; at 30 nM treatment, 3 hours, FLT3-ITD positive MV4-11 leukemia cells; read-out: inhibition activity against phosphorylation of FLT3 and its down-stream effector STAT5
# Protocol: The potent compounds of formula (I) in EXAMPLE 2 were evaluated, by western blotting assay, for their cellular potencies against phosphorylation of FLT3 and its down-stream effector STAT5 in MV4-11 leukemia cell line with constitutive activation of FLT3 signaling. For western blotting experiments, MV4-11 cells were cultured in IMDM medium containing 0.1% FBS overnight. On the assay day, three million cells were treated with or without compounds for 3 hours in 15 mL tubes. Then, the whole cell lysates were harvested, following extraction by adding 2×SDS Sample Buffer and boiling on hot plate at 105° C. for 15 minutes. The resulting cell lysates were separated by SDS-PAGE electrophoresis and transferred to PVDF membrane. Protein expression was detected using immunoblot with corresponding primary antibody and secondary antibody following the standard procedures. Antibody against p-FLT3 (Tyr-591), anti-rabbit IgG HRP-linked secondary antibody, and anti-mouse IgG HRP-linked secondary antibody were purchased from Cell Signaling Technology. Antibody against p-STAT5 (Tyr-694) was purchased from BD biosciences. Antibody against actin was purchased from R&D system. […] Band intensities of western blot were also quantified by ChemiDoc™ MP Imaging System. Relative intensities of bandscorresponding to drug treatments at a single concentration (30 nM) were compared to the DMSO control group. The percentage (%) inhibition at each drug concentration was calculated using the formula: Percentage(%)inhibition=(1−Relative intensity)×100.
IC50 (FLT3-D835Y mutant kinase),SMILES,IC50 [1],inhibition at 0.03 µM [2]
1 to 10 nM,"Cn1ncc2ccc(-c3n[nH]c4c3Cc3sc(-c5ccc(CN6CCOCC6)cc5)cc3-4)cc21 [Compound 8, 4-(4-(3-(1-methyl-1H-indazol-6-yl)-1,4-dihydro-thieno[2′,3′:4,5]cyclopenta [1,2-c]pyrazol-6-yl)benzyl) morpholine]",> 10000 nM,> 50%
< 1 nM,"C[C@@H]1CN(Cc2ccc(-c3cc4c(s3)Cc3c(-c5ccc6cnn(C)c6c5)n[nH]c3-4)cn2)C[C@H](C)O1 [Compound 9, (2S,6R)-2,6-dimethyl-4-((5-(3-(1-methyl-lH-indazol-6-yl)-1,4-dihydro-thieno[2′,3′:4,5]cyclopenta [1,2-c]pyrazol-6-yl)pyridin-2-yl)methyl) morpholine]",> 10000 nM,> 50%
< 1 nM,"Cn1ncc2ccc(-c3n[nH]c4c3Cc3sc(-c5ccc(CN6CCOCC6)nc5)cc3-4)cc21 [Compound 10, 4-((5-(3-(1-methyl-1H-indazol-6-yl)-1,4-dihydro-thieno[2′,3′:4,5]cyclopenta [1,2-c]pyrazol-6-yl)pyridin-2-yl)methyl)morpholine]",> 10000 nM,> 50%
1 to 10 nM,"C[C@@H]1CN(Cc2cccc(-c3cc4c(s3)Cc3c(-c5ccc6cnn(C)c6c5)n[nH]c3-4)c2)C[C@H](C)O1 [Compound 12, (2S,6R)-2,6-dimethyl-4-(3-(3-(1-methyl-1H-indazol-6-yl)-1,4-dihydrothieno [2′,3′:4,5]cyclopenta[1,2-c]pyrazol-6-yl)benzyl) morpholine]",> 10000 nM,> 50%
1 to 10 nM,"Cn1ncc2ccc(-c3n[nH]c4c3Cc3sc(-c5cccc(CN6CCOCC6)c5)cc3-4)cc21 [Compound 13, 4-(3-(3-(1-methyl-1H-indazol-6-yl)-1,4-dihydro-thieno[2′,3′:4,5]cyclopenta [1,2-c]pyrazol-6-yl)benzyl) morpholine]",> 10000 nM,> 50%
< 1 nM,"CN1CCN(C(=O)c2ccc(-c3cc4c(s3)Cc3c(-c5ccc6cnn(C)c6c5)n[nH]c3-4)cc2)CC1 [Compound 15, (4-(3-(1-methyl-1H-indazol-6-yl)-1,4-dihydrothieno[2′,3′:4,5]cyclopenta[1,2-c]pyrazol-6-yl)phenyl)(4-methyl-piperazin-1-yl)methanone]",> 10000 nM,> 50%
< 1 nM,"C[C@@H]1CN(Cc2ccc(-c3cc4c(s3)Cc3c(-c5ccc6cn[nH]c6c5)n[nH]c3-4)cn2)C[C@H](C)O1 [Compound 16, (2R,6S)-4-((5-(3-(1H-indazol-6-yl)-1,4-dihydro-thieno[2′,3′:4,5]cyclopenta [1,2-c]pyrazol-6-yl)pyridin-2-yl)methyl)-2,6-dimethylmorpholine]",> 10000 nM,> 50%
1 to 10 nM,"Cc1cc(-c2cc3c(s2)Cc2c(-c4ccc5cnn(C)c5c4)n[nH]c2-3)ccn1 [Compound 17, 3-(1-methyl-1H-indazol-6-yl)-6-(2-methylpyridin-4-yl)-1,4-dihydrothieno [2′,3′:4,5]cyclopenta[1,2-c] pyrazole]",> 10000 nM,> 50%
1 to 10 nM,"c1cc(CN2CCOCC2)ncc1-c1cc2c(s1)Cc1c(-c3ccc4cn[nH]c4c3)n[nH]c1-2 [Compound 18, 4-((5-(3-(1H-indazol-6-yl)-1,4-dihydrothieno[2′,3′:4,5]cyclopenta[1,2-c]pyrazol-6-yl)pyridin-2-yl)methyl) morpholine]",> 10000 nM,> 50%
1 to 10 nM,"C[C@@H]1CN(C(=O)c2ccc(-c3cc4c(s3)Cc3c(-c5ccc6cnn(C)c6c5)n[nH]c3-4)cc2)C[C@H](C)O1 [Compound 19, ((2S,6R)-2,6-dimethyl-morpholino)(4-(3-(1-methyl-1H-indazol-6-yl)-1,4-dihydrothieno[2′,3′:4,5]cyclopenta[1,2-c]pyrazol-6-yl)phenyl)methanone]",> 10000 nM,> 50%
1 to 10 nM,"CC(c1ccc(-c2cc3c(s2)Cc2c(-c4ccc5cnn(C)c5c4)n[nH]c2-3)cc1)N1CCOCC1 (stereo not drawn) [Compound 20, 4-(1-(4-(3-(1-methyl-1H-indazol-6-yl)-1,4-dihydro-thieno[2′,3′:4,5]cyclopenta [1,2-c]pyrazol-6-yl)phenyl)ethyl)morpholine]",> 10000 nM,> 50%
< 1 nM,"Cn1ncc2ccc(-c3n[nH]c4c3Cc3sc(-c5ccc(C(=O)N6CCOCC6)cc5)cc3-4)cc21 [Compound 21, (4-(3-(1-methyl-1H-indazol-6-yl)-1,4-dihydro-thieno[2′,3′:4,5]cyclopenta [1,2-c]pyrazol-6-yl)phenyl) (morpholino)methanone]",> 10000 nM,> 50%
1 to 10 nM,"Cn1ncc2ccc(-c3n[nH]c4c3Cc3sc(-c5ccc(CCN6CCOCC6)cc5)cc3-4)cc21 [Compound 22, 4-(4-(3-(1-methyl-1H-indazol-6-yl)-1,4-dihydro-thieno[2′,3′:4,5]cyclopenta [1,2-c]pyrazol-6-yl)phenethyl)morpholine]",> 10000 nM,> 50%
< 1 nM,"Cn1ncc2ccc(-c3n[nH]c4c3Cc3sc(-c5ccc(C(=O)N6CCOCC6)nc5)cc3-4)cc21 [Compound 23, (5-(3-(1-methyl-1H-indazol-6-yl)-1,4-dihydro-thieno[2′,3′:4,5]cyclopenta [1,2-c]pyrazol-6-yl)pyridin-2-yl)(morpholino) methanone]",> 10000 nM,> 50%
< 1 nM,"COc1cc(-c2cc3c(s2)Cc2c(-c4ccc5cnn(C)c5c4)n[nH]c2-3)ccc1CN1CCOCC1 [Compound 24, 4-(2-methoxy-4-(3-(1-methyl-1H-indazol-6-yl)-1,4-dihydrothieno[2′,3′:4,5]cyclopenta[1,2-c]pyrazol-6-yl)benzyl)morpholine]",> 10000 nM,> 50%
